Experimental data from ChEMBL document CHEMBL1777785, “A novel approach for predicting P-glycoprotein (ABCB1) inhibition using molecular interaction fields” (J Med Chem, 2011).

Tests used:
[1] = molecular target: T1, ATP-dependent translocase ABCB1 (Homo sapiens, UniProt P08183); settings: l5178, 20 min, 100 µM
[2] = molecular target: T1, ATP-dependent translocase ABCB1

T1 sequence (P08183 whole entry): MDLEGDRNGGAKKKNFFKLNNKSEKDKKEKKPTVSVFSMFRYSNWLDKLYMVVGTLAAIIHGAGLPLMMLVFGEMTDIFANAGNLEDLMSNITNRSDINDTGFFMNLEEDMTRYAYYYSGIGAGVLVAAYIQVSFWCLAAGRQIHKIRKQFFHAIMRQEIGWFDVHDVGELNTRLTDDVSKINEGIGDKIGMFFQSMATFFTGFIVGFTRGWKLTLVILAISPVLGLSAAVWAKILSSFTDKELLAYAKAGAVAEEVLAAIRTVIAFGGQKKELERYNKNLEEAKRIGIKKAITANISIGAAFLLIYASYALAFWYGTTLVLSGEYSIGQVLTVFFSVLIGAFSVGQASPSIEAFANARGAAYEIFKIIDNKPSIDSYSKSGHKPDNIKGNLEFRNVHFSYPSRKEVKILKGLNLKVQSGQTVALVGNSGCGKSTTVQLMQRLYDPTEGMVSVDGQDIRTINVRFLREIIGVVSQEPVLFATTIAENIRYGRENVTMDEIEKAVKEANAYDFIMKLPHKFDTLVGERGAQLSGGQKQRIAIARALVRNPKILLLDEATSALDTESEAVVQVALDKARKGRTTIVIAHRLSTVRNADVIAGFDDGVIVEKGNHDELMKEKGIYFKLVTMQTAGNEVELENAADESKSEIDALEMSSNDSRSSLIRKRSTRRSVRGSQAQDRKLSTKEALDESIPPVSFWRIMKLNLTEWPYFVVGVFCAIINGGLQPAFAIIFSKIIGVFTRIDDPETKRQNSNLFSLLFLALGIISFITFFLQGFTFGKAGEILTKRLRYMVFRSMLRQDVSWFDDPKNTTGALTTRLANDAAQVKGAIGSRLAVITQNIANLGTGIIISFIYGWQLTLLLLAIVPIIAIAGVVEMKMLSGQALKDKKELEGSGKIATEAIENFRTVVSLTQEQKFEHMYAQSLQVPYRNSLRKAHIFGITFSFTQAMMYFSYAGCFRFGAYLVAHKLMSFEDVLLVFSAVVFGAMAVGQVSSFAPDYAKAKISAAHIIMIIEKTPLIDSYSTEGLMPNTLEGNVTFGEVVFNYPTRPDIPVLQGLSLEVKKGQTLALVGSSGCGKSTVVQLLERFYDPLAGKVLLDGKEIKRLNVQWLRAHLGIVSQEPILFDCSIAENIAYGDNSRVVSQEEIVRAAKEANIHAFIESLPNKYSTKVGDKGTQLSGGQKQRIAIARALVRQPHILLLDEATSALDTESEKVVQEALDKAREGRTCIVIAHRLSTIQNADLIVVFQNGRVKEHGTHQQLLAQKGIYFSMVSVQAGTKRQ

| Alpha max [1] | IC50 [2] | Compound |
| --- | --- | --- |
| 0.99 |  | O=C1CCc2ccc(OCCCCN3CCN(c4cccc(Cl)c4Cl)CC3)cc2N1 [ARIPIPRAZOLE] |
| 0 |  | CC1(C)S[C@@H]2[C@H](NC(=O)[C@H](C(=O)O)c3ccsc3)C(=O)N2[C@H]1C(=O)O [TICARCILLIN] |
| 0.35 |  | CCOc1cc(CC(=O)N[C@@H](CC(C)C)c2ccccc2N2CCCCC2)ccc1C(=O)O [REPAGLINIDE] |
| 0 |  | CC(C)[C@H]1CC[C@H](C(=O)N[C@H](Cc2ccccc2)C(=O)O)CC1 [NATEGLINIDE] |
| 0.16 |  | CCN(CC)CCCN(c1ccccc1)C1Cc2ccccc2C1 [APRINDINE] |

The remaining lines, values behind:

| Compound | Alpha max [1] | IC50 [2] |
| --- | --- | --- |
| C=CCc1ccccc1OCC(O)CNC(C)C (centres undefined) [ALPRENOLOL] | 0.05 |  |
| O=C1NCCN1CCN1CCC(c2cn(-c3ccc(F)cc3)c3ccc(Cl)cc23)CC1 [SERTINDOLE] | 0.74 | 6.5 µM |
| O=C1Cc2cc(CCN3CCN(c4nsc5ccccc45)CC3)c(Cl)cc2N1 [ZIPRASIDONE] | 0.19 |  |
